This data set relates to CCRIS mutagenicity, Ames/micronucleus/aberration tests. The data set can be described thus: CCRIS mutagenicity studies.
[1] abbreviates: Test System: AMES SALMONELLA TYPHIMURIUM, Strain/Indicator: TA98, Metabolic Activation: NONE, Method: STANDARD PLATE.
The mark [2] stands for this setting: Test System: AMES SALMONELLA TYPHIMURIUM, Strain/Indicator: TA100, Metabolic Activation: NONE, Method: STANDARD PLATE.
Where [3] appears, read: Test System: AMES SALMONELLA TYPHIMURIUM, Strain/Indicator: TA1535, Metabolic Activation: NONE, Method: STANDARD PLATE.
Setting [4] is: Test System: AMES SALMONELLA TYPHIMURIUM, Strain/Indicator: TA1538, Metabolic Activation: NONE, Method: STANDARD PLATE.
Setting [5] is: Test System: MOUSE LYMPHOMA, Strain/Indicator: L5178Y (TK+/TK-), Metabolic Activation: NONE, Method: SUSPENSION/PLATE.

Active and inactive are the calls of the source. The rule behind the calls is not given here.

`O=[N+]([O-])c1cc2ccc3cccc4ccc(c1)c2c34`: the mutagenic call by setting is: (Test System: AMES SALMONELLA TYPHIMURIUM, Strain/Indicator: TA96, Metabolic Activation: NONE, Method: STANDARD PLATE) “active; positive”; (Test System: AMES SALMONELLA TYPHIMURIUM, Strain/Indicator: TA97, Metabolic Activation: NONE, Method: STANDARD PLATE) “active; positive”; (Test System: AMES SALMONELLA TYPHIMURIUM, Strain/Indicator: TA98(1,8-DNP6), Metabolic Activation: NONE) “active; positive”; (Test System: AMES SALMONELLA TYPHIMURIUM, Strain/Indicator: TA98(1,8-DNP6), Metabolic Activation: NONE, Method: STANDARD PLATE) “active; positive”; (Test System: AMES SALMONELLA TYPHIMURIUM, Strain/Indicator: TA98(1,8-DNP6), Metabolic Activation: RAT, LIVER, S-9, AROCLOR 1254) “inactive; negative”; (Test System: AMES SALMONELLA TYPHIMURIUM, Strain/Indicator: TA98(NR), Metabolic Activation: NONE) “active; positive”. In addition, the mutagenic call was “active; positive” (Test System: AMES SALMONELLA TYPHIMURIUM, Strain/Indicator: TA98(NR), Metabolic Activation: NONE, Method: STANDARD PLATE); “active; positive” (Test System: AMES SALMONELLA TYPHIMURIUM, Strain/Indicator: TA98(NR), Metabolic Activation: RAT, LIVER, S-9, AROCLOR 1254); “active; positive” (Test System: AMES SALMONELLA TYPHIMURIUM, Strain/Indicator: TA98, Metabolic Activation: NONE); “active; positive” (Test System: AMES SALMONELLA TYPHIMURIUM, Strain/Indicator: TA98, Metabolic Activation: NONE, Method: PREINCUBATION); “active; positive” under setting [1]; “active; positive” (Test System: AMES SALMONELLA TYPHIMURIUM, Strain/Indicator: TA98, Metabolic Activation: RAT, LIVER, S-9, AROCLOR 1254). The mutagenic call by setting is: (Test System: AMES SALMONELLA TYPHIMURIUM, Strain/Indicator: TA98, Metabolic Activation: RAT, LIVER, S-9, PCB (10%), Method: PREINCUBATION) “inactive; negative”; (Test System: AMES SALMONELLA TYPHIMURIUM, Strain/Indicator: TA100(NR), Metabolic Activation: NONE) “inactive; negative”; (Test System: AMES SALMONELLA TYPHIMURIUM, Strain/Indicator: TA100(NR), Metabolic Activation: NONE, Method: STANDARD PLATE) “inactive; negative”; (Test System: AMES SALMONELLA TYPHIMURIUM, Strain/Indicator: TA100(NR), Metabolic Activation: RAT, LIVER, S-9, AROCLOR 1254) “active; positive”; (Test System: AMES SALMONELLA TYPHIMURIUM, Strain/Indicator: TA100, Metabolic Activation: NONE) “active; positive”; under setting [2], “active; positive”. Moreover, the mutagenic call runs as follows: (Test System: AMES SALMONELLA TYPHIMURIUM, Strain/Indicator: TA100, Metabolic Activation: RAT, LIVER, S-9, AROCLOR 1254) “active; positive”; (Test System: AMES SALMONELLA TYPHIMURIUM, Strain/Indicator: TA102, Metabolic Activation: NONE, Method: STANDARD PLATE) “inactive; negative”; (Test System: AMES SALMONELLA TYPHIMURIUM, Strain/Indicator: TA104, Metabolic Activation: NONE) “active; positive”; (Test System: AMES SALMONELLA TYPHIMURIUM, Strain/Indicator: TA104, Metabolic Activation: NONE, Method: STANDARD PLATE) “active; positive”; (Test System: AMES SALMONELLA TYPHIMURIUM, Strain/Indicator: TA104, Metabolic Activation: RAT, LIVER, S-9, AROCLOR 1254) “active; positive”; under setting [3], “inactive; negative”. Moreover, the mutagenic call reads like this: under setting [4], “active; positive”; (Test System: AMES SALMONELLA TYPHIMURIUM, Strain/Indicator: TA7001, Metabolic Activation: NONE, Method: PREINCUBATION) “active; positive”; (Test System: AMES SALMONELLA TYPHIMURIUM, Strain/Indicator: TA7002, Metabolic Activation: NONE, Method: PREINCUBATION) “active; positive”; (Test System: AMES SALMONELLA TYPHIMURIUM, Strain/Indicator: TA7003, Metabolic Activation: NONE, Method: PREINCUBATION) “active; positive”; (Test System: AMES SALMONELLA TYPHIMURIUM, Strain/Indicator: TA7004, Metabolic Activation: NONE, Method: PREINCUBATION) “active; positive”; (Test System: AMES SALMONELLA TYPHIMURIUM, Strain/Indicator: TA7005, Metabolic Activation: NONE, Method: PREINCUBATION) “active; positive”. In addition, the mutagenic call (Test System: AMES SALMONELLA TYPHIMURIUM, Strain/Indicator: TA7006, Metabolic Activation: NONE, Method: PREINCUBATION) was “active; positive”.
As to `O=[N+]([O-])c1c(Cl)c(Cl)c2c(c1Cl)Oc1cc(Cl)c(Cl)cc1O2`, the mutagenic call runs as follows: under setting [1], “active; positive”; (Test System: AMES SALMONELLA TYPHIMURIUM, Strain/Indicator: TA98, Metabolic Activation: RAT, LIVER, S-9, AROCLOR, Method: STANDARD PLATE) “active; positive”; under setting [2], “inactive; negative”; (Test System: AMES SALMONELLA TYPHIMURIUM, Strain/Indicator: TA100, Metabolic Activation: RAT, LIVER, S-9, AROCLOR, Method: STANDARD PLATE) “active; positive”.
For `C[C@@H]1O[C@@H](O[C@H]2C[C@@H](O)[C@]3(CO)[C@H]4[C@H](O)C[C@]5(C)[C@@H](C6=CC(=O)OC6)CC[C@]5(O)[C@@H]4CC[C@]3(O)C2)[C@H](O)[C@H](O)[C@H]1O`, the mutagenic call under setting [5] is “active; positive”.
Take `C=C[Si](C)(Cl)Cl`: the mutagenic call reads like this: (Test System: AMES SALMONELLA TYPHIMURIUM, Strain/Indicator: TA98, Metabolic Activation: HAMSTER, LIVER, S-9, AROCLOR 1254 (10%), Method: STANDARD PLATE) “inactive; negative”; under setting [1], “inactive; negative”; (Test System: AMES SALMONELLA TYPHIMURIUM, Strain/Indicator: TA98, Metabolic Activation: RAT, LIVER, S-9, AROCLOR 1254 (10%), Method: STANDARD PLATE) “inactive; negative”; (Test System: AMES SALMONELLA TYPHIMURIUM, Strain/Indicator: TA100, Metabolic Activation: HAMSTER, LIVER, S-9, AROCLOR 1254 (10%), Method: STANDARD PLATE) “inactive; negative”; under setting [2], “inactive; negative”; (Test System: AMES SALMONELLA TYPHIMURIUM, Strain/Indicator: TA100, Metabolic Activation: RAT, LIVER, S-9, AROCLOR 1254 (10%), Method: STANDARD PLATE) “inactive; negative”. In addition, the mutagenic call runs as follows: (Test System: AMES SALMONELLA TYPHIMURIUM, Strain/Indicator: TA1535, Metabolic Activation: HAMSTER, LIVER, S-9, AROCLOR 1254 (10%), Method: STANDARD PLATE) “active; positive”; under setting [3], “inactive; negative”; (Test System: AMES SALMONELLA TYPHIMURIUM, Strain/Indicator: TA1535, Metabolic Activation: RAT, LIVER, S-9, AROCLOR 1254 (10%), Method: STANDARD PLATE) “inactive; negative”; (Test System: AMES SALMONELLA TYPHIMURIUM, Strain/Indicator: TA1537, Metabolic Activation: HAMSTER, LIVER, S-9, AROCLOR 1254 (10%), Method: STANDARD PLATE) “inactive; negative”; (Test System: AMES SALMONELLA TYPHIMURIUM, Strain/Indicator: TA1537, Metabolic Activation: NONE, Method: STANDARD PLATE) “inactive; negative”; (Test System: AMES SALMONELLA TYPHIMURIUM, Strain/Indicator: TA1537, Metabolic Activation: RAT, LIVER, S-9, AROCLOR 1254 (10%), Method: STANDARD PLATE) “inactive; negative”. For the same compound, the mutagenic call reads like this: (Test System: AMES SALMONELLA TYPHIMURIUM, Strain/Indicator: TA1538, Metabolic Activation: HAMSTER, LIVER, S-9, AROCLOR 1254 (10%), Method: STANDARD PLATE) “inactive; negative”; under setting [4], “inactive; negative”; (Test System: AMES SALMONELLA TYPHIMURIUM, Strain/Indicator: TA1538, Metabolic Activation: RAT, LIVER, S-9, AROCLOR 1254 (10%), Method: STANDARD PLATE) “inactive; negative”; under setting [5], “inactive; negative. reevaluation of results: negative”; (Test System: MOUSE LYMPHOMA, Strain/Indicator: L5178Y (TK+/TK-), Metabolic Activation: RAT, LIVER, S-9, AROCLOR 1254, Method: SUSPENSION/PLATE) “inactive; negative. reevaluation of results: inconclusive”.
Regarding `COc1ccc2c3c(cccc13)OC([N+](=O)[O-])=C2`, the mutagenic call is, setting by setting: under setting [1], “inactive; negative”; (Test System: AMES SALMONELLA TYPHIMURIUM, Strain/Indicator: TA98, Metabolic Activation: S-9, Method: STANDARD PLATE) “inactive; negative”; under setting [2], “active; positive”; (Test System: AMES SALMONELLA TYPHIMURIUM, Strain/Indicator: TA100, Metabolic Activation: S-9, Method: STANDARD PLATE) “inactive; negative”.

(Values after PubChem BioAssay AID1259407 (Chemical Carcinogenesis Research Information System (CCRIS), 2018).)
